# From PMC10644327, “A randomized, double‐blind phase 1b study evaluating the safety, tolerability, pharmacokinetics and pharmacodynamics of the NLRP3 inhibitor selnoflast in patients with moderate to severe active ulcerative colitis” (Clinical and Translational Medicine, 2023)
# Where two headings read alike, the source gives them in different places.
# Assays:
# [1] = test system: IL‐1β release in ex vivo stimulated whole blood; set-up: method as in unpublished results, study IZD334-001; conditions: healthy subjects, 450 mg QD, ref unpublished results, study IZD334-001, cited from earlier work
# Caspase‐1 = Caspase‐1 (pro and active form) WES‐assay in sigmoid colon tissue; assay type: in vivo, human; conditions: after 7 days’ treatment
# Protocol: Tissue biopsies from the sigmoid colon were obtained before start of treatment (up to Day −3) and at the end of treatment (Day 7). For operational reasons, biopsies were taken 2−4.5 h post‐dose on Day 7. Stool samples were obtained at screening, before start of treatment, throughout the study, and at the 14‐day follow‐up visit. Levels of calprotectin were determined in stool samples. Sigmoid colon tissue was processed for RNA and DNA extraction as well as for single‐cell analysis, subsequent transcriptomic analysis, and identification of PD biomarkers. Sigmoid colon tissue samples were also processed for histology (hematoxylin and eosin staining, immunohistochemistry, fluorescence in situ hybridization) in order to characterize the cell types present (i.e., neutrophils and inflammatory monocytes). Histological analysis was performed on sigmoid colon tissue samples (from baseline and Day 7) using the disease‐specific histological indices Geboes score[23] and Nancy index.[24] Caspase‐1 (pro and active form) was assessed using a validated WES‐assay (manuscript in preparation).
# NLRP3 inflammasome = test system: NLRP3 inflammasome; set-up: method as in RO7486967 Investigator Brochure; conditions: ref RO7486967 Investigator Brochure; cited from earlier work
smiles,measurement,setting,value
"CCN1CCC(S(=O)(=O)NC(=O)Nc2c3c(cc4c2CCC4)CCC3)CC1 [Selnoflast, selnoflast]",Inhibition of IL‐1β release compared to baseline,[1]; over the dosing interval (24 hours),over 90%
same,Inhibition of IL‐1β release compared to baseline,"[1]; over the dosing interval (24 hours), listed as RO7486967",90%
same,Inhibition of IL‐1β release compared to baseline,[1]; up to 10 h post‐dose,99%
same,Caspase‐1 (pro‐ and active forms) change,Caspase‐1,did not show marked changes
same,Effect on IL-1β release and cell death in vitro,NLRP3 inflammasome,inhibit IL-1β release and cell death in vitro
